Assay results published in patent US20090238852A1, “METHODS FOR CONTROLLING INTRACELLULAR CALCIUM LEVELS ASSOCIATED WITH AN ISCHEMIC EVENT” (University of Utah Research Foundation, priority 2008, published 2009).
Where two headings read alike, the source gives them in different places.

Tests used:
[1] = system: rabbit ventricular myocytes; experiment: Intracellular sodium [Na^+]i in ventricular myocytes during PMI, Sodium Green flow cytometry; assay type: cell-based; conditions: PMI + ODSH 100 μg/mL; n = 7; PMI alone 11.16 ± 0.90, Hepes 6.04 ± 0.25
Protocol: In these studies, intracellular calcium concentration [Ca^++]i was measured by flow cytometry. Measurement of isolated mouse and rabbit ventricular myocyte [Ca^2+]i and [Na^+]i by flow cytometry has been described (Zhang et al., J. Cardiovasc. Pharmacol. 51: 443-449 (2008); Li et al., J. Mol. Cell. Cardiol. 33: 2145-2155 (2001)). [Ca^++]i was measured with the Ca^++ sensitive fluorescent probe, Fluo 3-AM (Molecular Probes, Eugene, Oreg.), using a FACScan (Becton-Dickinson, MA). The cells were exposed to 4 μmol/L Fluo-3 AM for 30 min at 37° C. The cells were then separated into aliquots. After 40 min of wash, the cells were exposed to paced metabolic ischemia (MI) for 45 min at 37° C. Metabolic ischemia was accomplished by incubating cells in a glucose-free MKRBB solution (pH 7.40) containing 2 mmol/L sodium cyanide (NaCN) to impair mitochondrial and glycolytic generation of ATP. […] Approximately 2×10^3 myocytes were analyzed to calculate average emission fluorescence intensity in each sample. […] Only those cells with low fluorescence intensity at 670 nm (PI-negative cells or viable cells) were included in the comparative analysis of [Ca^++]i. The sample [Ca^2+]i values were calculated by Mn^2+ quenching (Sugishita et al, 2001) and [Na^+]i values by comparison with a standard curve of varied [Na^+]i versus Na Green fluorescence. […] Results were expressed as means±SEM. […]

[2] = in vivo
Protocol: (§1) A study was performed in eight (8) healthy adult male and female subjects to assess the effects of a bolus dose and 72 hour infusion of 2-O, 3-O desulfated heparin. The study was a Phase I study with a three day treatment period. Doses were adjusted to maintain an aPTT level of 40-45 seconds. Subjects were between the ages of 18 and 60, were not pregnant, and were normal in body weight. They all had normal coagulation function and hemoglobin values at baseline.
Subjects received an initial bolus of 8 mg/kg of ODSH over 15 minutes, followed by 72 hours continuous infusion beginning at 0.58 mg/kg/hr. For each subject ODSH as a 50 mg/ml formulation was diluted with normal saline and administered as a bolus infused over 15 minutes containing the calculated amount of ODSH the subject was to receive, followed by infusion of ODSH diluted in saline. The infusion dose was adjusted to maintain an aPTT of 40-45 seconds. Immediately before infusion and after the start of each infusion, blood was drawn at periodic times (over a total 72 hour period) to monitor the effect of infusion on the following laboratory studies: activated partial thromboplastin time (aPTT), prothrombin time (PT), activated clotting time (ACT), and ODSH plasma level. Serum chemistries and a complete blood count were checked immediately before infusion and again periodically for up to 240 hours later. Using values for aPTT and ODSH levels, pharmacokinetic parameters were calculated by noncompartmental methods using a commercial software program (PhAST 2.3-001). The following pharmacokinetic parameters were calculated as above: Cmax; Kel; tmax; AUC O-t; AUCinf, t1/2; CL; and Vdss.

[3] = system: blood coagulation (aPTT, ACT); experiment: Phase I bolus plus 12 hour infusion study: coagulation tests (aPTT, ACT); assay type: in vivo, human; conditions: all dosing regimens; FIG. 20
Protocol: A study was performed in twenty-four (24) healthy adult subjects to assess the effects of a bolus dose and 12 hour infusion of 2-O, 3-O desulfated heparin. The study was a Phase I, randomized, double-blind, dose escalation study with single-day treatment periods. Subjects were males between the ages of 18 and 45, and were normal in body weight. They all had normal coagulation function and hemoglobin values at baseline. […] Eighteen (18) subjects were randomized to receive ODSH and six (6) subjects were randomized to receive placebo. Subjects received either ODSH or placebo as described below in Table 13.
For each subject, ODSH as a 50 mg/ml formulation was diluted with normal saline and administered as a bolus infused over 15 minutes containing the calculated amount of ODSH the subject was to receive, followed by a constant infusion for 12 hours of ODSH diluted in saline. Placebo consisted of 50 mL of normal saline infused over 15 minutes, followed by normal saline infused for 12 hours. Immediately before infusion and after the start of each infusion, blood was drawn at periodic times (over a total 24 hour period) to monitor the effect of infusion on the following laboratory studies: activated partial thromboplastin time (aPTT); prothrombin time (PT); activated clotting time (ACT); and ODSH plasma level.

blood coagulation (aPTT) = experiment: Phase I bolus plus 72 hour infusion study: aPTT; assay type: in vivo, human; conditions: from relationship of aPTT change and ODSH level, FIG. 23
Protocol: as §1
Subjects received an initial bolus of 8 mg/kg of ODSH over 15 minutes, followed by 72 hours continuous infusion beginning at 0.58 mg/kg/hr. For each subject ODSH as a 50 mg/ml formulation was diluted with normal saline and administered as a bolus infused over 15 minutes containing the calculated amount of ODSH the subject was to receive, followed by infusion of ODSH diluted in saline. The infusion dose was adjusted to maintain an aPTT of 40-45 seconds. […] Using values for aPTT and ODSH levels, pharmacokinetic parameters were calculated by noncompartmental methods using a commercial software program (PhAST 2.3-001). The following pharmacokinetic parameters were calculated as above: Cmax; Kel; tmax; AUC O-t; AUCinf, t1/2; CL; and Vdss.

[4] = in vivo; remark: listed apart in the source
Protocol: A study was performed in 38 volunteer human subjects to assess the safety of escalating bolus doses of 2-O, 3-O desulfated heparin (ODSH). The study was a Phase I, randomized, double-blind, dose-escalation study with a single-day treatment period. Subjects were between the ages of 18 and 45, were not pregnant, and were normal in body weight. They all had normal coagulation function and hemoglobin values at baseline.
Two subjects also received an injection of fully anticoagulated unfractionated heparin for comparison. ODSH dose groups were run in a series, and safety and tolerance data were evaluated prior to the start of the next dose level (4, 8 12, 16 and 20 mg/kg bolus intravenous doses). Twenty eight (28) subjects randomly received ODSH and 9 subjects were randomized to receive placebo, with an additional two subjects receiving commercially available unfractionated heparin.
For each bolus dose, ODSH as a 50 mg/mL formulation was diluted with normal saline and a total volume of 50 ml was infused over 15 minutes containing the calculated amount of ODSH the subject was to receive. Placebo consisted of 50 mL of normal saline infused over 15 minutes. For subjects receiving heparin, 5,000 units (approximately 0.5 mg/kg) of heparin was diluted into 50 ml of normal saline and infused over 15 minutes.
Immediately before infusion and beginning 7 minutes after the start of each infusion, blood was drawn at periodic times for 24 hours to monitor the effect of infusion on the following laboratory studies: activated partial thromboplastin time (aPTT); prothrombin time (PT); activated clotting time (ACT); and ODSH plasma level. Serum chemistries and a complete blood count were checked immediately before infusion and at eight (8) and twenty-four (24) hours later. Using values for aPTT and ODSH levels, pharmacokinetic parameters were calculated by noncompartmental methods using a commercial software program (PhAST 2.3-001). The following pharmacokinetic parameters were calculated: • a) Maximum measured plasma concentration (Cmax); • b) First-order terminal elimination rate constant (Kel), calculated from a semi-log plot of the serum concentration versus time curve; this parameter was calculated by linear least-square regression analysis using the maximum number of points in the terminal log-linear phase (e.g., 3 or more non-zero serum concentrations); • c) Time of the maximum measured drug plasma concentration (tmax); • d) The area under the plasma concentration versus time curve from time 0 to the last observation (AUC 0-t), calculated by the linear trapezoidal method; • e) The area under the plasma concentration versus time curve from time 0 to infinity (AUCinf), which was calculated as the sum of AUC 0-t plus the ratio of the last measurable serum concentration to the elimination rate constant; • f) First-order terminal elimination (t1/2), calculated as 0.693/Kel; • g) Total body clearance (CL), calculated as Dose/AUCinf, and • h) Total volume of distribution (Vdss), calculated as MRT×CL.

anti-Xa = conditions: product of the procedure of U.S. Pat. No. 5,990,097; cited from earlier work

Substance: 2-O, 3-O desulfated heparin [ODSH]
- [Na^+]i [1]: 7.85 ± 0.45 mM
- Platelet count, Day After Infusion [2]: 261 ± 37 thousands/μL blood
- Platelet count, Day Before Infusion [2]: 261 ± 40 thousands/μL blood
- Platelet count, Infusion Day 2 [2]: 258 ± 39 thousands/μL blood
- Platelet count, Infusion Day 3 [2]: 272 ± 42 thousands/μL blood
- ecchymosis [2]: Mild ecchymosis was reported in one subject
- transient elevations in serum ALT and AST [2]: observed in seven subjects
- ACT increases [3]: ACT increases providing adequate therapeutic anticoagulation necessary for the cardiac catheterization laboratory were observed in all dosing regimens
- aPTT above baseline at ODSH blood concentrations of 100 μg/mL (blood coagulation (aPTT)): approximately 50 seconds
- aPTT absolute value at ODSH blood concentrations of 100 μg/mL (blood coagulation (aPTT)): about 75 seconds
- Mean clearance values, range over the dose groups ([4]; human, iv): 0.0103 to 0.0154 L/h/kg
- Mean elimination half-life values, range over the dose groups ([4]; human, iv): 1.93 to 2.72 h
- Median tmax values, range over the dose groups ([4]; human, iv): 0.37 to 0.88 h
- AUC 0-t ([4]; human, iv, 4 mg/kg): 307.2 µg·h/mL
- AUCinf ([4]; human, iv, 4 mg/kg): 415.2 µg·h/mL
- CL ([4]; human, iv, 4 mg/kg): 0.010254 ± 0.0038984 L/h/kg
- Cmax ([4]; human, iv, 4 mg/kg): 130.76 µg/mL
- MRT ([4]; human, iv, 4 mg/kg): 3.780 ± 1.6710 h
- Vdss ([4]; human, iv, 4 mg/kg): 0.03495 ± 0.011679 L/kg
- t1/2 ([4]; human, iv, 4 mg/kg): 2.585 ± 1.1225 h
- tmax ([4]; human, iv, 4 mg/kg): 0.47 h
- AUC 0-t ([4]; human, iv, 8 mg/kg): 461.9 µg·h/mL
- AUCinf ([4]; human, iv, 8 mg/kg): 629.2 µg·h/mL
- CL ([4]; human, iv, 8 mg/kg): 0.012882 ± 0.0023521 L/h/kg
- Cmax ([4]; human, iv, 8 mg/kg): 163.74 µg/mL
- MRT ([4]; human, iv, 8 mg/kg): 2.775 ± 0.6087 h
- Vdss ([4]; human, iv, 8 mg/kg): 0.03513 ± 0.00658 L/kg
- t1/2 ([4]; human, iv, 8 mg/kg): 1.933 ± 0.4537 h
- tmax ([4]; human, iv, 8 mg/kg): 0.37 h
- AUC 0-t ([4]; human, iv, 12 mg/kg): 619.1 µg·h/mL
- AUCinf ([4]; human, iv, 12 mg/kg): 1086.5 µg·h/mL
- CL ([4]; human, iv, 12 mg/kg): 0.011202 ± 0.0021722 L/h/kg
- Cmax ([4]; human, iv, 12 mg/kg): 179.28 µg/mL
- MRT ([4]; human, iv, 12 mg/kg): 3.894 ± 0.9516 h
- Vdss ([4]; human, iv, 12 mg/kg): 0.04212 ± 0.00317 L/kg
- t1/2 ([4]; human, iv, 12 mg/kg): 2.724 ± 0.6667 h
- tmax ([4]; human, iv, 12 mg/kg): 0.88 h
- AUC 0-t ([4]; human, iv, 16 mg/kg): 886.9 µg·h/mL
- AUCinf ([4]; human, iv, 16 mg/kg): 1075.8 µg·h/mL
- CL ([4]; human, iv, 16 mg/kg): 0.015364 ± 0.0040502 L/h/kg
- Cmax ([4]; human, iv, 16 mg/kg): 285.38 µg/mL
- MRT ([4]; human, iv, 16 mg/kg): 3.287 ± 1.0560 h
- Vdss ([4]; human, iv, 16 mg/kg): 0.04725 ± 0.007944 L/kg
- t1/2 ([4]; human, iv, 16 mg/kg): 2.261 ± 0.8548 h
- tmax ([4]; human, iv, 16 mg/kg): 0.50 h
- AUC 0-t ([4]; human, iv, 20 mg/kg): 1322.1 µg·h/mL
- AUCinf ([4]; human, iv, 20 mg/kg): 1638.7 µg·h/mL
- CL ([4]; human, iv, 20 mg/kg): 0.012526 ± 0.000209 L/h/kg
- Cmax ([4]; human, iv, 20 mg/kg): 366.73 µg/mL
- MRT ([4]; human, iv, 20 mg/kg): 3.639 ± 0.6670 h
- Vdss ([4]; human, iv, 20 mg/kg): 0.04556 ± 0.008256 L/kg
- t1/2 ([4]; human, iv, 20 mg/kg): 2.637 ± 0.4765 h
- tmax ([4]; human, iv, 20 mg/kg): 0.50 h
- ODSH plasma levels produced [4]: > 300 µg/mL
- anti-Xa anti-coagulant activity (anti-Xa): less than 10 U/mg
